Test results published in patent US8962574B2 (Boehringer Ingelheim International GmbH, priority 2008, dated 2015).
Values joined by “and” are separate entries in the source; they are usually repeats but may differ in a detail not shown here. Identical values can stand only once. Like-named read-outs stand apart in the source and are kept apart here.

System: patients with atrial fibrillation
[1] = individual patients with LFT abnormalities, one table line per patient (age c0, sex c1), ^# = with concomitant Bilirubin elevation to >2xULN

CCCCCCOC(=O)NC(=N)c1ccc(NCc2nc3cc(C(=O)N(CCC(=O)OCC)c4ccccn4)ccc3n2C)cc1 [dabigatran etexilate, 1-methyl-2-[N-[4-(N-n-hexyloxycarbonylamidino)phenyl]aminomethyl]benzimidazol-5-ylcarboxylic acid-N-(2-pyridyl)-N-(2-ethoxycarbonylethyl)amides]
ALT or AST >3xULN and Bili >2xULN within 30 days, subjects with event (300 mg b.i.d.): 0
ALT or AST >3xULN, rate (300 mg b.i.d.): 2.4 % per year
ALT or AST >3xULN, subjects with event (300 mg b.i.d.): 2
ALT or AST >5xULN, rate (300 mg b.i.d.): 1.2 % per year
ALT or AST >5xULN, subjects with event (300 mg b.i.d.): 1
Adverse Events leading to premature discontinuation, rate (300 mg b.i.d.): 25.6 % per year
Adverse Events leading to premature discontinuation, subjects with event (300 mg b.i.d.): 21
MI, subjects with event (300 mg b.i.d.): 0
Major Bleeds with aspirin, rate (300 mg b.i.d.): 32.7 % per year
Major Bleeds with aspirin, subjects with event (300 mg b.i.d.): 6
Major Bleeds without aspirin, rate (300 mg b.i.d.): 6.3 % per year
Major Bleeds without aspirin, subjects with event (300 mg b.i.d.): 4
Major Bleeds, rate (300 mg b.i.d.): 12.2 % per year
Major Bleeds, subjects with event (300 mg b.i.d.): 10
Other MACE, subjects with event (300 mg b.i.d.): 1
Stroke and Systemic Thromboembolism, subjects with event (300 mg b.i.d.): 1
TIA, subjects with event (300 mg b.i.d.): 0
ALT or AST >2xULN, rate (300 mg q.d.): 1.5 % per year
ALT or AST >2xULN, subjects with event (300 mg q.d.): 3
ALT or AST >3xULN and Bili >2xULN within 30 days, rate (300 mg q.d.): 0.5 % per year
ALT or AST >3xULN and Bili >2xULN within 30 days, subjects with event (300 mg q.d.): 1
ALT or AST >3xULN, rate (300 mg q.d.): 1.5 % per year
ALT or AST >3xULN, subjects with event (300 mg q.d.): 3
ALT or AST >5xULN, rate (300 mg q.d.): 1.5 % per year
ALT or AST >5xULN, subjects with event (300 mg q.d.): 3
Adverse Events leading to premature discontinuation, rate (300 mg q.d.): 9.6 % per year
Adverse Events leading to premature discontinuation, subjects with event (300 mg q.d.): 19
MI, subjects with event (300 mg q.d.): 1
Major Bleeds with aspirin, rate (300 mg q.d.): 3.6 % per year
Major Bleeds with aspirin, subjects with event (300 mg q.d.): 2
Major Bleeds without aspirin, rate (300 mg q.d.): 2.1 % per year
Major Bleeds without aspirin, subjects with event (300 mg q.d.): 3
Major Bleeds, rate (300 mg q.d.): 2.5 % per year
Major Bleeds, subjects with event (300 mg q.d.): 5
Other MACE, subjects with event (300 mg q.d.): 1
Stroke and Systemic Thromboembolism, subjects with event (300 mg q.d.): 5
TIA, subjects with event (300 mg q.d.): 0
Serious adverse events: cardiac disorders, number of patients (PETRO-Ex): 80
Serious adverse events: gastrointestinal disorders, number of patients (PETRO-Ex): 28
Serious adverse events: infections, number of patients (PETRO-Ex): 34
Serious adverse events: nervous system disorders, number of patients (PETRO-Ex): 33
Serious adverse events, number of patients (PETRO-Ex, including bleeding and thrombotic events): 184
ALT or AST >2xULN, rate (Total (all doses)): 2.9 % per year
ALT or AST >2xULN, subjects with event (Total (all doses)): 30
ALT or AST >3xULN and Bili >2xULN within 30 days, rate (Total (all doses)): 0.4 % per year
ALT or AST >3xULN and Bili >2xULN within 30 days, subjects with event (Total (all doses)): four
ALT or AST >3xULN, rate (Total (all doses)): 1.7 % per year
ALT or AST >3xULN, subjects with event (Total (all doses)): 18
ALT or AST >5xULN, rate (Total (all doses)): 1.1 % per year
ALT or AST >5xULN, subjects with event (Total (all doses)): 11
Adverse Events leading to premature discontinuation, rate (Total (all doses)): 11.5 % per year
Adverse Events leading to premature discontinuation, subjects with event (Total (all doses)): 120
MI, subjects with event (Total (all doses)): 7
Major Bleeds with aspirin, rate (Total (all doses)): 8.5 % per year
Major Bleeds with aspirin, subjects with event (Total (all doses)): 19
Major Bleeds without aspirin, rate (Total (all doses)): 3.2 % per year
Major Bleeds without aspirin, subjects with event (Total (all doses)): 26
Major Bleeds, rate (Total (all doses)): 4.2 % per year
Major Bleeds, subjects with event (Total (all doses)): 44
Other MACE, subjects with event (Total (all doses)): 11
Stroke and Systemic Thromboembolism, subjects with event (Total (all doses)): 20
TIA, subjects with event (Total (all doses)): 1
ALT or AST >3xULN and Bili >2xULN within 30 days, subjects with event (Total (all doses), listed as Dabigatran etexilate): 4
Risk ratio of bleeding event rate on concomitant aspirin vs. without (in vivo): 2.70
Final Outcome/Comment of LFT abnormality (individual patients with LFT abnormalities, one table line per patient (age c0, sex c1)): Recovered
LFT abnormality ALT/ULN [1]: >5x xULN (4×) and >5x^# xULN (2×) and >3x xULN (5×) and >3x^# xULN
LFT abnormality AST/ULN [1]: >5x^# xULN (4×) and >5x xULN (4×) and >3x xULN (5×)
Final Outcome/Comment of LFT abnormality (individual patients with LFT abnormalities, one table line per patient (age c0, sex c1), listed as Dabigatran etexilate): Fatal
